Measurements from patent US20070049564A1 (Wyeth, priority 2005, published 2007).
≈ marks a conversion by molar mass, not a printed value. Like-named read-outs stand apart in the source and are kept apart here.

Legend:
Staph. = assay: Range of MIC for Staph. strains, including MRSA; settings: Staphylococcus aureus, MRSA
E. coli GC 2232 = assay: MIC, broth microdilution
E. coli GC 3226 = assay: MIC, broth microdilution
S. pyogenes GC 4563 = assay: MIC, broth microdilution
E. coli GC 2231 = assay: MIC, broth microdilution
E. coli GC 2234 = assay: MIC, broth microdilution; settings: Escherichia coli, GC2234, E. coli GC 2234
E. coli GC 2203 = assay: MIC, broth microdilution
S. aureus GC 2216 = assay: MIC, broth microdilution
E. coli GC 2271 = assay: MIC, broth microdilution; settings: Escherichia coli, GC2271, E. coli GC 2271
P. aeruginosa GC 2214 = assay: MIC, broth microdilution
E. faecium GC 4556 = assay: MIC, broth microdilution; settings: Enterococcus faecium
E. coli GC 2236 = assay: MIC, broth microdilution
Procedure: Antimicrobial susceptibility testing. The in vitro activities of the antibiotics are determined by the broth microdilution method as recommended by the National Committee for Clinical Laboratory Standards (NCCLS) (1). Mueller-Hinton II broth (MHBII)(BBL Cockeysville, Md.) is the medium employed in the testing procedures. Microtiter plates containing serial dilutions of each antimicrobial agent are inoculated with each organism to yield the appropriate density (10^5 CFU/ml) in a 100 μl final volume. The plates are incubated for 18-22 hours at 35° C. in ambient air. […] Standard Pharmacological Test Procedures
Presented in Tables I-XIII are representative compounds of Formula I which were evaluated against a panel of 40 selected gram-positive and gram-negative bacteria strains by pre-incubation in water, mouse serum or human serum. Representative compounds were first incubated in mouse serum for an hour prior to the in vitro testing against a panel of selected gram-positive and gram-negative bacteria strains. All compounds were also pre-incubated in water for an hour prior to testing as control. Representative compounds of Formula I were incubated in human serum prior to MIC determination.

S. aureus GC 6466 = assay: MIC, broth microdilution; settings: Staphylococcus aureus
E. faecium GC 2243 = assay: MIC, broth microdilution
S. aureus GC 6469 = assay: MIC, broth microdilution
E. coli GC 2233 = assay: MIC, broth microdilution; settings: Escherichia coli, GC2233, E. coli GC 2233
E. coli GC 2270 = assay: MIC, broth microdilution; settings: Escherichia coli
S. aureus GC 6335 = assay: MIC, broth microdilution
E. faecalis GC 2265 = assay: MIC, broth microdilution
E. coli = assay: Range of MIC for E. coli strains; settings: Escherichia coli
[1] = read-out: Range of MIC, Staph (Mouse Serum)
[2] = read-out: Range of MIC, Staph (Water)

## CCCN(CC(=O)Nc1cc(N(C)C)c2c(c1O)C(=O)C1=C(O)[C@]3(O)C(=O)C(C(N)=O)=C(O)[C@@H](N(C)C)[C@@H]3C[C@@H]1C2)C(=O)OCC [Example 15, ethyl 2-{[(5aR,6aS,7S,10aS)-9-(aminocarbonyl)-4,7-bis(dimethylamino)-1,8,10a,11-tetrahydroxy-10,12-dioxo-5,5a,6,6a,7,10,10a,12-octahydrotetracen-2-yl]amino}-2-oxoethyl(propyl)carbamate]
Staph.; [1]
  MIC: 2 to 16 µg/mL (≈ 3.11 to 24.9 µM)
Staph.; [2]
  MIC: 4 to 16 µg/mL (≈ 6.21 to 24.9 µM)
E. coli GC 2232; Escherichia coli, GC2232, E. coli GC 2232, Mouse Serum pre-incubation
  MIC: > 64 µg/mL
E. coli GC 2232; Escherichia coli, GC2232, E. coli GC 2232, Water pre-incubation
  MIC: > 64 µg/mL
E. coli GC 3226; Escherichia coli, GC3226, E. coli GC 3226, Mouse Serum pre-incubation
  MIC: > 64 µg/mL
E. coli GC 3226; Escherichia coli, GC3226, E. coli GC 3226, Water pre-incubation
  MIC: > 64 µg/mL
S. pyogenes GC 4563; Streptococcus pyogenes, GC4563, S. pyogenes GC 4563, Mouse Serum pre-incubation
  MIC: 2 µg/mL (≈ 3.11 µM)
S. pyogenes GC 4563; Streptococcus pyogenes, GC4563, S. pyogenes GC 4563, Water pre-incubation
  MIC: 2 µg/mL (≈ 3.11 µM)
E. coli GC 2231; Escherichia coli, GC2231, E. coli GC 2231, Mouse Serum pre-incubation
  MIC: > 64 µg/mL
E. coli GC 2231; Escherichia coli, GC2231, E. coli GC 2231, Water pre-incubation
  MIC: > 64 µg/mL
E. coli GC 2234; Mouse Serum pre-incubation
  MIC: > 64 µg/mL
E. coli GC 2234; Water pre-incubation
  MIC: > 64 µg/mL
E. coli GC 2203; Escherichia coli, GC2203, E. coli GC 2203, Mouse Serum pre-incubation
  MIC: 32 µg/mL (≈ 49.7 µM)
E. coli GC 2203; Escherichia coli, GC2203, E. coli GC 2203, Water pre-incubation
  MIC: 64 µg/mL (≈ 99.4 µM)
S. aureus GC 2216; Staphylococcus aureus, GC2216, S. aureus GC 2216, Mouse Serum pre-incubation
  MIC: 2 µg/mL (≈ 3.11 µM)
S. aureus GC 2216; Staphylococcus aureus, GC2216, S. aureus GC 2216, Water pre-incubation
  MIC: 4 µg/mL (≈ 6.21 µM)
E. coli GC 2271; Mouse Serum pre-incubation
  MIC: 64 µg/mL (≈ 99.4 µM)
E. coli GC 2271; Water pre-incubation
  MIC: 64 µg/mL (≈ 99.4 µM)
P. aeruginosa GC 2214; Pseudomonas aeruginosa, GC2214, P. aeruginosa GC 2214, Mouse Serum pre-incubation
  MIC: > 64 µg/mL
P. aeruginosa GC 2214; Pseudomonas aeruginosa, GC2214, P. aeruginosa GC 2214, Water pre-incubation
  MIC: > 64 µg/mL
E. faecium GC 4556; GC4556, E. faecium GC 4556, Mouse Serum pre-incubation
  MIC: 8 µg/mL (≈ 12.4 µM)
E. faecium GC 4556; GC4556, E. faecium GC 4556, Water pre-incubation
  MIC: 8 µg/mL (≈ 12.4 µM)
E. coli GC 2236; Escherichia coli, GC2236, E. coli GC 2236, Mouse Serum pre-incubation
  MIC: > 64 µg/mL
E. coli GC 2236; Escherichia coli, GC2236, E. coli GC 2236, Water pre-incubation
  MIC: 64 µg/mL (≈ 99.4 µM)
S. aureus GC 6466; GC6466, S. aureus GC 6466, Mouse Serum pre-incubation
  MIC: 2 µg/mL (≈ 3.11 µM)
S. aureus GC 6466; GC6466, S. aureus GC 6466, Water pre-incubation
  MIC: 4 µg/mL (≈ 6.21 µM)
E. faecium GC 2243; Enterococcus faecium, GC2243, E. faecium GC 2243, Mouse Serum pre-incubation
  MIC: 8 µg/mL (≈ 12.4 µM)
E. faecium GC 2243; Enterococcus faecium, GC2243, E. faecium GC 2243, Water pre-incubation
  MIC: 8 µg/mL (≈ 12.4 µM)
S. aureus GC 6469; Staphylococcus aureus, GC6469, S. aureus GC 6469, Mouse Serum pre-incubation
  MIC: 4 µg/mL (≈ 6.21 µM)
S. aureus GC 6469; Staphylococcus aureus, GC6469, S. aureus GC 6469, Water pre-incubation
  MIC: 8 µg/mL (≈ 12.4 µM)
E. coli GC 2233; Mouse Serum pre-incubation
  MIC: > 64 µg/mL
E. coli GC 2233; Water pre-incubation
  MIC: > 64 µg/mL
E. coli GC 2270; GC2270, E. coli GC 2270, Mouse Serum pre-incubation
  MIC: 64 µg/mL (≈ 99.4 µM)
E. coli GC 2270; GC2270, E. coli GC 2270, Water pre-incubation
  MIC: 64 µg/mL (≈ 99.4 µM)
S. aureus GC 6335; Staphylococcus aureus, GC6335, S. aureus GC 6335, Mouse Serum pre-incubation
  MIC: 4 µg/mL (≈ 6.21 µM)
S. aureus GC 6335; Staphylococcus aureus, GC6335, S. aureus GC 6335, Water pre-incubation
  MIC: 4 µg/mL (≈ 6.21 µM)
E. faecalis GC 2265; Enterococcus faecalis, GC2265, E. faecalis GC 2265, Mouse Serum pre-incubation
  MIC: 8 µg/mL (≈ 12.4 µM)
E. faecalis GC 2265; Enterococcus faecalis, GC2265, E. faecalis GC 2265, Water pre-incubation
  MIC: 8 µg/mL (≈ 12.4 µM)

## CCCCN(CC(=O)Nc1cc(N(C)C)c2c(c1O)C(=O)C1=C(O)[C@]3(O)C(=O)C(C(N)=O)=C(O)[C@@H](N(C)C)C3CC1C2)C(=O)OCc1oc(=O)oc1C (stereo partly drawn) [Example 109, (5-methyl-2-oxo-1,3-dioxol-4-yl)methyl 2-{[(7S,10aS)-9-(aminocarbonyl)-4,7-bis(dimethylamino)-1,8,10a,11-tetrahydroxy-10,12-dioxo-5,5a,6,6a,7,10,10a,12-octahydrotetracen-2-yl]amino}-2-oxoethyl(butyl)carbamate]
Staph.; [1]
  MIC: 0.5 to 2 µg/mL (≈ 0.674 to 2.7 µM)
Staph.; [2]
  MIC: 4 to 8 µg/mL (≈ 5.39 to 10.8 µM)
E. coli GC 2232; Escherichia coli, GC2232, pre-incubation in mouse serum
  MIC: 0.5 µg/mL (≈ 0.674 µM)
E. coli GC 2232; Escherichia coli, GC2232, pre-incubation in water
  MIC: 1 µg/mL (≈ 1.35 µM)
E. coli GC 2232; pre-incubation in water
  MIC: 2 UG/ML
E. coli; 20 h, read-out: Range of MIC, E. coli (Mouse Serum)
  MIC: 0.25 to 1 µg/mL (≈ 0.337 to 1.35 µM)
E. coli; read-out: Range of MIC, E. coli (Water)
  MIC: 1 to 4 µg/mL (≈ 1.35 to 5.39 µM)
E. coli GC 3226; Escherichia coli, GC3226, pre-incubation in mouse serum
  MIC: 0.5 µg/mL (≈ 0.674 µM)
E. coli GC 3226; pre-incubation in mouse serum
  MIC: 1 UG/ML
S. pyogenes GC 4563; Streptococcus pyogenes, GC4563, pre-incubation in mouse serum
  MIC: < 0.06 µg/mL
S. pyogenes GC 4563; pre-incubation in mouse serum
  MIC: 0.12 UG/ML
E. coli GC 2231; Escherichia coli, GC2231, pre-incubation in mouse serum
  MIC: 0.5 µg/mL (≈ 0.674 µM)
E. coli GC 2231; Escherichia coli, GC2231, pre-incubation in water
  MIC: 1 µg/mL (≈ 1.35 µM)
E. coli GC 2231; pre-incubation in mouse serum
  MIC: 1 UG/ML
E. coli GC 2231; pre-incubation in water
  MIC: 2 UG/ML
E. coli GC 2203; Escherichia coli, GC2203, pre-incubation in mouse serum
  MIC: 0.5 µg/mL (≈ 0.674 µM)
E. coli GC 2203; Escherichia coli, GC2203, pre-incubation in water
  MIC: 1 µg/mL (≈ 1.35 µM)
E. coli GC 2203; pre-incubation in water
  MIC: 2 UG/ML
S. aureus GC 2216; Staphylococcus aureus, GC2216, pre-incubation in mouse serum
  MIC: 1 µg/mL (≈ 1.35 µM)
S. aureus GC 2216; pre-incubation in mouse serum
  MIC: 0.50 UG/ML
P. aeruginosa GC 2214; Pseudomonas aeruginosa, GC2214, pre-incubation in mouse serum
  MIC: 16 µg/mL (≈ 21.6 µM)
P. aeruginosa GC 2214; Pseudomonas aeruginosa, GC2214, pre-incubation in water
  MIC: > 64 µg/mL
P. aeruginosa GC 2214; pre-incubation in mouse serum
  MIC: 32 UG/ML
E. faecium GC 4556; GC4556, pre-incubation in mouse serum
  MIC: 1 µg/mL (≈ 1.35 µM)
E. faecium GC 4556; GC4556, pre-incubation in water
  MIC: 2 µg/mL (≈ 2.7 µM)
E. coli GC 2236; Escherichia coli, GC2236, pre-incubation in mouse serum
  MIC: 0.5 µg/mL (≈ 0.674 µM)
E. coli GC 2236; Escherichia coli, GC2236, pre-incubation in water
  MIC: 1 µg/mL (≈ 1.35 µM)
E. coli GC 2236; pre-incubation in water
  MIC: 2 UG/ML
S. aureus GC 6466; GC6466, pre-incubation in mouse serum
  MIC: 0.5 µg/mL (≈ 0.674 µM)
E. faecium GC 2243; Enterococcus faecium, GC2243, pre-incubation in mouse serum
  MIC: 0.5 µg/mL (≈ 0.674 µM)
E. faecium GC 2243; Enterococcus faecium, GC2243, pre-incubation in water
  MIC: 0.5 µg/mL (≈ 0.674 µM)
E. faecium GC 2243; pre-incubation in water
  MIC: 1 UG/ML
S. aureus GC 6469; Staphylococcus aureus, GC6469, pre-incubation in mouse serum
  MIC: 1 µg/mL (≈ 1.35 µM)
S. aureus GC 6469; pre-incubation in mouse serum
  MIC: 2 UG/ML
E. coli GC 2270; GC2270, pre-incubation in mouse serum
  MIC: 0.25 µg/mL (≈ 0.337 µM)
S. aureus GC 6335; Staphylococcus aureus, GC6335, pre-incubation in mouse serum
  MIC: 2 µg/mL (≈ 2.7 µM)
S. aureus GC 6335; Staphylococcus aureus, GC6335, pre-incubation in water
  MIC: 4 µg/mL (≈ 5.39 µM)
S. aureus GC 6335; pre-incubation in mouse serum
  MIC: 1 UG/ML
E. faecalis GC 2265; Enterococcus faecalis, GC2265, pre-incubation in mouse serum
  MIC: 1 µg/mL (≈ 1.35 µM)
E. faecalis GC 2265; Enterococcus faecalis, GC2265, pre-incubation in water
  MIC: 2 µg/mL (≈ 2.7 µM)
E. faecalis GC 2265; pre-incubation in water
  MIC: 4 UG/ML
